Assay [1] can be described thus: Glycation inhibitory activity using L-arginine and glucose. It is filed as biochemical. To be noted: 55 μg/ml; positive control; n=3. Here is the method:
To confirm an antiglycation efficacy, glycation inhibitory activity was measured using L-arginine and glucose.
A solution of 1 M L-arginine and 1 M glucose in 1 M phosphate buffer (pH 7.4) was first prepared and diluted with 1 M phosphate buffer so that the concentration of the sample was 100 μg/ml, 1 M L-arginine and 1 M phosphate buffer were mixed in a ratio of 1:4, and 80 μl thereof was dispensed into each well of a 96-well plate. To this, each sample, which was diluted to 100 μg/ml, and 100 μl of 0.01 M aminoguanidine, which was used as a positive control, were added. After sufficiently mixing the sample, finally, glucose which was diluted with 1 M phosphate buffer so that the final concentration of glucose was 0.1 M was added and then reacted at 70° C. for four hours. In the 96-well plate, absorbance was measured at 420 nm using a spectrophotometer to measure a degree of glycation.
The glycation experimental group of Mathematical Formula 3 is an experimental group in which glycation was induced by adding 1 M L-arginine and 1 M glucose, and to measure the absorbance of a sample itself, absorbance was measured at 420 nm after adding only 1 M L-arginine and the sample and no glucose.
The glycation inhibitory activity can be calculated according to the following Mathematical Formula 3. Each group was tested three times, and an average value was obtained.

The next assay concerns B-16 mouse melanoma cell. Briefly: Total melanin amount reduction. It is filed as cell-based. Conditions: 100 μg/ml, three days. Here is the method: Each of Examples 1 to 3 and Comparative Examples 1 to 3 was added to a mouse melanoma cell (B-16 mouse melanoma cell) culture medium, and a whitening effect thereof at the cellular level was tested.
Each extract was tested after being added to the culture medium at a final concentration of 100 μg/ml, and arbutin, which was a control, was added to the medium at a concentration of 100 μg/ml. B-16 melanoma cells were treated with the experimental group or the control and then cultured for three days.
Subsequently, the cultured cells were treated with trypsin, removed from the culture vessel, and then centrifuged to extract melanin. The removed cells were treated with 1 ml of a sodium hydroxide solution (1 N) and then boiled for 10 minutes to dissolve melanin, and absorbance was measured at 400 nm using a spectrophotometer to measure the amount of produced melanin.
The amount of melanin was measured as absorbance per unit cell number (10^6 cells), and a ratio thereof relative to the total melanin amount of the control was calculated as an inhibition rate (%), and the results are summarized in Table 4.

The test system of assay [2] is tyrosinase enzyme extracted from mushrooms. The assay can be described thus: Tyrosinase inhibition. It is filed as biochemical. Conditions: 52.8 μg/ml; positive control; n=3. Here is the method:
A tyrosinase enzyme extracted from mushrooms and commercially available from SIGMA was used. First, tyrosine, a substrate, was dissolved in distilled water to make a solution having a concentration of 0.3 mg/ml, 1.0 ml of the solution was input into each test tube, and 1.0 ml of a potassium-phosphate buffer solution (concentration: 0.1 mol, pH: 6.8) and 0.7 ml of distilled water were added thereto. 0.2 ml of a sample solution, which had been prepared by adding one of Examples 1 to 3 of the present invention and Comparative Examples 1 to 3 to an ethanol solution at a final concentration of 100 μg/ml, was added to a reaction solution and then reacted in a 37° C. thermostat for 10 minutes. In this case, a control was prepared by adding only 0.2 ml of an ethanol solution instead of the sample solution, and vitamin C was used as a positive control. After adding 0.1 ml of a 2,500 units/ml tyrosinase solution, the reaction solution was again reacted in a 37° C. thermostat for 10 minutes. The test tube containing the reaction solution was quenched by placing in ice water to stop the reaction, and absorbance was measured at a wavelength of 475 nm using a photoelectric spectrometer, and the results are shown in Table 3 below. The tyrosinase inhibitory effect of each sample was calculated according to the following Mathematical Formula 2.

Assay [3] has as its system human-derived fibroblasts. Briefly: Effect of increasing total collagen amount (PICP EIA kit). In kind it is cell-based. To be noted: 52.8 μg/ml; cultured one day; relative to control without additive; n=3. Here is the method:
The Lilium hansonii extracts and the three types of Lilium genus plant extracts were added to a culture medium containing human-derived fibroblasts, and then their effects of increasing a total collagen amount at the cellular level were compared. The increased total collagen amount was quantified using a Procollagen Type I C-Peptide Enzyme ImmunoAssay kit (PICP EIA kit). […] After adding each sample to a culture medium containing human-derived fibroblasts and culturing for one day, the culture medium was collected and a degree of increase in a total collagen amount at each concentration was measured at 450 nm using a PICP EIA kit and a spectrophotometer. For the comparison of effects, a degree of increase in a total collagen amount was measured in the same manner for a fibroblast culture medium to which no sample was added (control) and a sample to which vitamin C was added at a final concentration of 52.8 μg/ml. The total collagen amount was measured as UV absorbance, and a rate of increase in the total collagen amount was calculated as a ratio of a total collagen amount relative to that of the control, and the results are summarized in Table 1 below.

The subject of another assay is Human dermal fibroblasts. The assay can be described thus: Hyaluronic acid synthesis promotion (Hyaluronan ELISA). To be noted: 10 ng/ml (10 ppb); positive control; 24 hours; control without additive = 100%. In kind it is cell-based. Here is the method: Human dermal fibroblasts were cultured at a concentration of 1×10^5 cells/mL in a DMEM medium containing 10% fetal bovine serum and, after dispensing 500 μl thereof into each well of a 24-well plate, cultured for 18 hours. Subsequently, each sample was diluted in a DMEM medium not containing fetal bovine serum, and each sample was added at various concentrations. As a positive control, an epidermal growth factor (EGF) known to promote hyaluronic acid production was treated at a concentration of 10 ppb. After culturing for 24 hours, a cell culture medium was recovered, and the concentration of hyaluronic acid was measured using a Hyaluronan ELISA kit (R&D Systems).
In addition, the hyaluronic acid concentration of each experimental group treated with each sample was quantified based on the hyaluronic acid concentration (100%) of a control not containing an additive, and the results are shown in the following Table 5.
A general note: In an ELISA, binding on a coated surface is turned into a signal by an enzyme label.

For orientation: inhibition means the relative decrease from the control value, in per cent.

In the case of `N=C(N)NN` [Aminoguanidine, aminoguanidine], the “Glycation inhibition rate (%)” value in assay [1] was found to be 54.89%.
For the compound `OC[C@H]1O[C@@H](Oc2ccc(O)cc2)[C@H](O)[C@@H](O)[C@@H]1O` [Arbutin, arbutin], the “Total melanin amount (Abs)” value in the assay on B-16 mouse melanoma cell (absorbance at 400 nm per 10^6 cells, control 0.254) worked out at 0.126 Abs. For the same compound, in the assay with B-16 mouse melanoma cell (Mus musculus, 72 h, relative to control, read-out: Inhibition rate (%) (total melanin)), the inhibition at 100 µg/mL turned out to be 50.4%.
Regarding `O=C1O[C@H]([C@@H](O)CO)C(O)=C1O` [Vitamin C, vitamin C], the “Tyrosinase inhibition rate (%)” value in assay [2] was 50%. Further, the “Collagen increase rate (%)” value in assay [3] was found to be 26%.
Turning to “EGF: epidermal growth factor known to promote hyaluronic acid production, positive control”, in the assay on Human dermal fibroblasts, the “Hyaluronic acid (%)” value came to 150.9%.

The record behind these values is US12514814B2, “Composition containing extract of Lilium hansonii leichtlin ex baker” (LG HOUSEHOLD & HEALTH CARE LTD., priority 2019, dated 2026).
